In patent US11306084B2, “Integrin antagonists” (Saint Louis University, priority 2016, dated 2022):
Structures can show the parent of a compound that is named as a salt.

Assays:
Format in all cases: binding
[1] = molecular target: T1, Recombinant human integrin ανβ3 (Homo sapiens, UniProt P05106+P06756); test: Solid Phase Receptor Assay (SPRA) for ανβ3 function; conditions: plate-bound human vitronectin; read-out: αvβ3 SPRA IC50
T1 construct: purchased R&D Systems 3050-AV

[2] = molecular target: T2, Recombinant human integrin ανβ6 (Homo sapiens, UniProt P06756+P18564); test: Solid Phase Receptor Assay (SPRA) for ανβ6 function; conditions: plate-bound human LAP; read-out: αvβ6 SPRA IC50
T2 construct: purchased R&D Systems 3817-AV
T2 sequence (P06756 31-992 limits assumed): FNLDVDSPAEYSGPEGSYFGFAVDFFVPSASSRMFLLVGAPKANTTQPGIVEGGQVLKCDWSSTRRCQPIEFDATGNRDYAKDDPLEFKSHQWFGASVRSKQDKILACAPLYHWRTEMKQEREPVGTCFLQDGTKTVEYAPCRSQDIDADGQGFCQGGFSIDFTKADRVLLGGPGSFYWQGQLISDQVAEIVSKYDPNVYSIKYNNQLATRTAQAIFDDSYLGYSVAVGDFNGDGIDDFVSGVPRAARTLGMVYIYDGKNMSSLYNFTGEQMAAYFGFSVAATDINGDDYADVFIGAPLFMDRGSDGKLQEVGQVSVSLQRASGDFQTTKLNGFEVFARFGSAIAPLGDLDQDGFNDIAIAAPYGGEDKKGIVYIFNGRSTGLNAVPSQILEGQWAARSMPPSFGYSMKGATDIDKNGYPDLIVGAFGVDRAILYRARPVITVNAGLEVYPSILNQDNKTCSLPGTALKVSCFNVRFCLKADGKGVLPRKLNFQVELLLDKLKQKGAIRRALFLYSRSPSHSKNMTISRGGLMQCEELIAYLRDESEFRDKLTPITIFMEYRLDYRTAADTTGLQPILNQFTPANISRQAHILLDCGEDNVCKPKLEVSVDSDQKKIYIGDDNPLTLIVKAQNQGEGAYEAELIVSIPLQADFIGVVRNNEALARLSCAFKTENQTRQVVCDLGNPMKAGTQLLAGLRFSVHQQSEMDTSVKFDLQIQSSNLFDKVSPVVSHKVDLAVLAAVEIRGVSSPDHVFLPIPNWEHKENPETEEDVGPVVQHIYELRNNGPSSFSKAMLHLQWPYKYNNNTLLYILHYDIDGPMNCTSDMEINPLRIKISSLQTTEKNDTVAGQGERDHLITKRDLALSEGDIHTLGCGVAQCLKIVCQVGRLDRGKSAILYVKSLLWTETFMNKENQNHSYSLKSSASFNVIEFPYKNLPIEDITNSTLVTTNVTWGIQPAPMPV
T2 sequence (P18564 22-707 limits assumed): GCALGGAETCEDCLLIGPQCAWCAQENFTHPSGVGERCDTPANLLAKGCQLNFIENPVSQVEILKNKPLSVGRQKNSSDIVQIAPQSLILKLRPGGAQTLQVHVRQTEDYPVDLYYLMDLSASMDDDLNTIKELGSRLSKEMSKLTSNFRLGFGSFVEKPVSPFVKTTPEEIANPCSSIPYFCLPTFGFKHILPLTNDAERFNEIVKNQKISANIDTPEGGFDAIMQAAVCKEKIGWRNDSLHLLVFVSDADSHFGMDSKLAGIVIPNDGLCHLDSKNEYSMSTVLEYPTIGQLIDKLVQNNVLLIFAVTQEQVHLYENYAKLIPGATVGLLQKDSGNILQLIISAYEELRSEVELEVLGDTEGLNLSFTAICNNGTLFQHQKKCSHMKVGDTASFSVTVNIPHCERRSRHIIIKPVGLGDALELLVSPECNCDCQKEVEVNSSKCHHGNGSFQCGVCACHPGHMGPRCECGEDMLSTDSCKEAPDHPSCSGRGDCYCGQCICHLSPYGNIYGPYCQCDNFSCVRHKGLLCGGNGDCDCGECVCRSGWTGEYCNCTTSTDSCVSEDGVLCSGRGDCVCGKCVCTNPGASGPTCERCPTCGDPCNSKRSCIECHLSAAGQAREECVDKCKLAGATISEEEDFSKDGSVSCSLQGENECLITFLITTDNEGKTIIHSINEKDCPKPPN

[3] = molecular target: T3, Recombinant human integrin α5β1 (Homo sapiens, UniProt P05556+P08648); test: Solid Phase Receptor Assay (SPRA) for α5β1 function; conditions: plate-bound human fibronectin
T3 construct: purchased R&D Systems 3230-A5
T3 sequence (P08648 42-995 limits assumed): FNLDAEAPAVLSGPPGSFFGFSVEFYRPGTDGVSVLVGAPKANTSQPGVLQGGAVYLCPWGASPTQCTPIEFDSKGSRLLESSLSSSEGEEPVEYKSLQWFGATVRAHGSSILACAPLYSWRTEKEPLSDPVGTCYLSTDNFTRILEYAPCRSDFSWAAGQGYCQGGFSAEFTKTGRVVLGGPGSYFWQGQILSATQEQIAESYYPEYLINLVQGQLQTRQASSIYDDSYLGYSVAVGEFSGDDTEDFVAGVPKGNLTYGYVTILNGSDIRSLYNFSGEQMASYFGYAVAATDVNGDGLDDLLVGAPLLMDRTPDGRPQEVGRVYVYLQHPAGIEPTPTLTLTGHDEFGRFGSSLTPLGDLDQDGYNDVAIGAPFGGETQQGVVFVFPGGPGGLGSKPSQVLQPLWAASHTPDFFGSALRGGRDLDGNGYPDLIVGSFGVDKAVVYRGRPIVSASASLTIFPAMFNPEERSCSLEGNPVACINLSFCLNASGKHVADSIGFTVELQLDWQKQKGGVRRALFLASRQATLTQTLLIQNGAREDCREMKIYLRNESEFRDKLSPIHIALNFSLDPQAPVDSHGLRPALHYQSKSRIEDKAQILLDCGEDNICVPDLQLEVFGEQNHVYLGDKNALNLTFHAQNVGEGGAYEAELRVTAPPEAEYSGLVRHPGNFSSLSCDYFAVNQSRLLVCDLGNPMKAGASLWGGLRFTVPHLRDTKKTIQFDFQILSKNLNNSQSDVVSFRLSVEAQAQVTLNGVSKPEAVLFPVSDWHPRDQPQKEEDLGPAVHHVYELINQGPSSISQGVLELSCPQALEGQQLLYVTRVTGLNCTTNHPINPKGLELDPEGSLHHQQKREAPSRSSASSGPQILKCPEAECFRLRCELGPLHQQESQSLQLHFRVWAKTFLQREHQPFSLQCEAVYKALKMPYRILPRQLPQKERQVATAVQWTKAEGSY
T3 sequence (P05556 21-728 limits assumed): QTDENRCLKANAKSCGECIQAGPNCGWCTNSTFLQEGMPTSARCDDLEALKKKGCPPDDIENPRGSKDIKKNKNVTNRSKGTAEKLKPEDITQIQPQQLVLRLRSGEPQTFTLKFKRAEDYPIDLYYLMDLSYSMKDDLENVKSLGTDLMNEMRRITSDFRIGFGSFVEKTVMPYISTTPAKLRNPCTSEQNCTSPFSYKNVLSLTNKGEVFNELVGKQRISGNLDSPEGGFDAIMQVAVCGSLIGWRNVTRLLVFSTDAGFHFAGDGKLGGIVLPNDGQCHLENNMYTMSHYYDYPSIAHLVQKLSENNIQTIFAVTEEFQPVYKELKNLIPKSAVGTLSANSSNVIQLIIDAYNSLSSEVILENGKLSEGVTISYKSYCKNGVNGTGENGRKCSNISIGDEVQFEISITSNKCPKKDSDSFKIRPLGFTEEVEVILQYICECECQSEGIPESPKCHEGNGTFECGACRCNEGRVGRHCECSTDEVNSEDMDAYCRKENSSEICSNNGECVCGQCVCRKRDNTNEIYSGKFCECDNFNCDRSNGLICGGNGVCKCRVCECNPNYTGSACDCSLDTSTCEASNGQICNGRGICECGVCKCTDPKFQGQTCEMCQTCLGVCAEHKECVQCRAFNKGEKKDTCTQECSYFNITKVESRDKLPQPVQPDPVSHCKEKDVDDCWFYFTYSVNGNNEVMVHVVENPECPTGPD

[4] = molecular target: T4, Recombinant human integrin ανβ5 (Homo sapiens, UniProt P06756+P18084); test: Solid Phase Receptor Assay (SPRA) for ανβ5 function; conditions: plate-bound human vitronectin; read-out: αvβ5 SPRA IC50
T4 construct: purchased R&D Systems 2528-AV
T4 sequence (P06756 31-992 limits assumed): as the sequence (P06756 31-992 limits assumed) above
T4 sequence (P18084 24-719 limits assumed): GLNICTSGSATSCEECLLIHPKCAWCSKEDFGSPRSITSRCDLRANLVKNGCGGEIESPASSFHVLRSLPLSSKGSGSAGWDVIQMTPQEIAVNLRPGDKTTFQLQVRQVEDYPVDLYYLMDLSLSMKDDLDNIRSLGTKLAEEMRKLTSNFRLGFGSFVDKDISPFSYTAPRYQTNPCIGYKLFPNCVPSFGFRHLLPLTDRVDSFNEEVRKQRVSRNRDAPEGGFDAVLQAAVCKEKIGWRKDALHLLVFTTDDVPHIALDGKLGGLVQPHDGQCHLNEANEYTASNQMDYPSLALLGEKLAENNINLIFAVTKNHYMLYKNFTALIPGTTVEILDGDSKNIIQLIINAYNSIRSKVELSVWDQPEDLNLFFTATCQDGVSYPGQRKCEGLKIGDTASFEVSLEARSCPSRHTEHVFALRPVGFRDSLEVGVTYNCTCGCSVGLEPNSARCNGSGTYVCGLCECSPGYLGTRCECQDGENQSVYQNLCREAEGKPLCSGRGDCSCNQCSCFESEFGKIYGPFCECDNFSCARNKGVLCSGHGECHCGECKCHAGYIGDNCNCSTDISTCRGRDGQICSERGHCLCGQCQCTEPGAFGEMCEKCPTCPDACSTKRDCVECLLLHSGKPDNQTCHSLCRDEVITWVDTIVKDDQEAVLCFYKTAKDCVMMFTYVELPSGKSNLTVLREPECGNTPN

T1 sequence (P06756 31-992 limits assumed): as the sequence (P06756 31-992 limits assumed) above
T1 sequence (P05106 27-718 limits assumed): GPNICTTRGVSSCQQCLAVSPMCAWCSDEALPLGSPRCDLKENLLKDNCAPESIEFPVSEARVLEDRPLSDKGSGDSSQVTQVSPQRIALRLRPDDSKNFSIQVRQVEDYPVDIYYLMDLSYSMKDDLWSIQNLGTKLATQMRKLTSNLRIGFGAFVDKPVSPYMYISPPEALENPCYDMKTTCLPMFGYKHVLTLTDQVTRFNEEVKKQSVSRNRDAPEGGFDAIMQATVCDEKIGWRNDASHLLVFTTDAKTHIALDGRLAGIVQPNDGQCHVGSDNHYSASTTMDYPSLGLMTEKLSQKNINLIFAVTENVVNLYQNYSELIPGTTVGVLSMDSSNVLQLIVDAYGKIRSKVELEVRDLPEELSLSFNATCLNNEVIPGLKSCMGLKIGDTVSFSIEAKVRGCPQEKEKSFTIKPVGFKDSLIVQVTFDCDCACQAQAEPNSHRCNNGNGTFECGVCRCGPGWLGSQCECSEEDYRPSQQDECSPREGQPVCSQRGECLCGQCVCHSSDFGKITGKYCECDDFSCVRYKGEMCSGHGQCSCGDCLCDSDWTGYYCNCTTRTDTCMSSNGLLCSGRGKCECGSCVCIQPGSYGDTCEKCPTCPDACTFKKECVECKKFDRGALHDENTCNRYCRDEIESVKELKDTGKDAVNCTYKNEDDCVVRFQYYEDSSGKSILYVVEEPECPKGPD

Compound	IC50 [1] [nM]	IC50 [2] [nM]	IC50 [3] [nM]	IC50 [4] [nM]
Cn1nc(CC(CC(=O)O)c2cc(Br)cc(C3(C(F)F)CC3)c2)cc1OCCc1ccc2c(n1)NCCC2 (stereo not drawn) [Example 19, 3-(3-bromo-5-(1-(difluoromethyl)cyclopropyl)phenyl)-4-(1-methyl-5-(2-(5,6,7,8-tetrahydro-1,8-naphthyridin-2-yl)ethoxy)-1H-pyrazol-3-yl)butanoic Acid]	6.4	45	15	1.2
Cn1nc(CC(CC(=O)O)c2ccc(F)c(Br)c2)cc1OCCc1ccc2c(n1)NCCC2 (stereo not drawn) [Example 5, 3-(3-bromo-4-fluorophenyl)-4-(1-methyl-5-(2-(5,6,7,8-tetrahydro-1,8-naphthyridin-2-yl)ethoxy)-1H-pyrazol-3-yl)butanoic Acid]	6	73	140	0.4
Cn1nc(CC(CC(=O)O)c2cc(C(C)(C)C)ccc2Cl)cc1OCCc1ccc2c(n1)NCCC2 (stereo not drawn) [Example 43, 3-(5-(tert-butyl)-2-chlorophenyl)-4-(1-methyl-5-(2-(5,6,7,8-tetrahydro-1,8-naphthyridin-2-yl)ethoxy)-1H-pyrazol-3-yl)butanoic Acid Trifluoroacetate]	94.4	800	77	16.6
Cn1nc(CC(CC(=O)O)c2cc(C(C)(C)C)cc(C(C)(C)C)c2)cc1OCCc1ccc2c(n1)NCCC2 (stereo not drawn) [Example 18, 3-(3,5-di-tert-butylphenyl)-4-[1-methyl-5-[2-(5,6,7,8-tetrahydro-1,8-naphthyridin-2-yl)ethoxyl]pyrazol-3-yl]butanoic Acid]	84	620	6.4	180
Cn1nc(CC(CC(=O)O)c2cc(Br)cc(C(C)(C)C(F)(F)F)c2)cc1OCCc1ccc2c(n1)NCCC2 (stereo not drawn) [Example 26, 3-[3-bromo-5-(2,2,2-trifluoro-1,1-dimethyl-ethyl)phenyl]-4-[1-methyl-5-[2-(5,6,7,8-tetrahydro-1,8-naphthyridin-2-yl)ethoxy]pyrazol-3-yl]butanoic Acid]	9.6	45	16	1.8
Cn1nc(CC(CC(=O)O)c2cc(C(C)(C)C)cc(C(F)(F)F)c2)cc1OCCc1ccc2c(n1)NCCC2 (stereo not drawn) [Example 37, 3-[3-tert-butyl-5-(trifluoromethyl)phenyl]-4-[1-methyl-5-[2-(5,6,7,8-tetrahydro-1,8-naphthyridin-2-yl)ethoxyl]pyrazol-3-yl]butanoic Acid]	7.3	140	7.9	6.2
Cc1ccc(C(C)(C)C)cc1C(CC(=O)O)Cc1cc(OCCc2ccc3c(n2)NCCC3)n(C)n1 (stereo not drawn) [Example 44, 3-(5-tert-butyl-2-methyl-phenyl)-4-[1-methyl-5-[2-(5,6,7,8-tetrahydro-1,8-naphthyridin-2-yl)ethoxy]pyrazol-3-yl]butanoic Acid Trifluoroacetate]	270	7100	230	76
Cn1nc(CC(CC(=O)O)c2ccc(F)c(C#N)c2)cc1OCCc1ccc2c(n1)NCCC2 (stereo not drawn) [Example 7, 3-(3-cyano-4-fluorophenyl)-4-(1-methyl-5-(2-(5,6,7,8-tetrahydro-1,8-naphthyridin-2-yl)ethoxy)-1H-pyrazol-3-yl)butanoic Acid]	7	50	224	0.6
COCC1(c2cc(F)cc(C(CC(=O)O)Cc3cc(OCCc4ccc5c(n4)NCCC5)n(C)n3)c2)CCOCC1 (stereo not drawn) [Example 30, 3-(3-fluoro-5-(4-(methoxymethyl)tetrahydro-2H-pyran-4-yl)phenyl)-4-(1-methyl-5-(2-(5,6,7,8-tetrahydro-1,8-naphthyridin-2-yl)ethoxy)-1H-pyrazol-3-yl)butanoic Acid]	8.1	180	12	0.5
Cn1nc(CC(CC(=O)O)c2cccc(C(C)(C)C)c2)cc1OCCc1ccc2c(n1)NCCC2 (stereo not drawn) [Example 49, 3-(3-tert-butylphenyl)-4-[1-methyl-5-[2-(5,6,7,8-tetrahydro-1,8-naphthyridin-2-yl)ethoxy]pyrazol-3-yl]butanoic Acid Trifluoroacetate]	7	94	12	0.4
Cn1nc(CC(CC(=O)O)c2cc(C(F)(F)F)cc(C(C)(C)C(F)(F)F)c2)cc1OCCc1ccc2c(n1)NCCC2 (stereo not drawn) [Example 25, 4-[1-methyl-5-[2-(5,6,7,8-tetrahydro-1,8-naphthyridin-2-yl)ethoxy]pyrazol-3-yl]-3-[3-(2,2,2-trifluoro-1,1-dimethylethyl)-5-(trifluoromethyl)phenyl]butanoic Acid]	4.6	25	12	2.9
COc1ccc(C(CC(=O)O)Cc2cc(OCCc3ccc4c(n3)NCCC4)n(C)n2)cc1F (stereo not drawn) [Example 3, 3-(3-fluoro-4-methoxyphenyl)-4-(1-methyl-5-(2-(5,6,7,8-tetrahydro-1,8-naphthyridin-2-yl)-ethoxy)-1H-pyrazol-3-yl)butanoic Acid]	3	99	114	0.4
Cn1nc(CC(CC(=O)O)c2cccc(C#N)c2)cc1OCCc1ccc2c(n1)NCCC2 (stereo not drawn) [Example 9, 3-(3-cyanophenyl)-4-(1-methyl-5-(2-(5,6,7,8-tetrahydro-1,8-naphthyridin-2-yl)ethoxy)-1H-pyrazol-3-yl)butanoic Acid]	6	12	110	0.2
Cn1nc(CC(CC(=O)O)c2ccc(Br)c(F)c2)cc1OCCc1ccc2c(n1)NCCC2 (stereo not drawn) [Example 4, 3-(4-bromo-3-fluorophenyl)-4-(1-methyl-5-(2-(5,6,7,8-tetrahydro-1,8-naphthyridin-2-yl)ethoxy)-1H-pyrazol-3-yl)butanoic Acid]	3	189	343	0.5
COc1ccc(C(N)=O)cc1C(CC(=O)O)Cc1cc(OCCc2ccc3c(n2)NCCC3)n(C)n1 (stereo not drawn) [Example 47, 3-(5-carbamoyl-2-methoxyphenyl)-4-(1-methyl-5-(2-(5,6,7,8-tetrahydro-1,8-naphthyridin-2-yl)ethoxy)-1H-pyrazol-3-yl)butanoic Acid trifluoroacetate]	4.9	77	13	0.3
Cn1nc(CC(CC(=O)O)c2cc(Br)cc(C(F)(F)F)c2)cc1OCCc1ccc2c(n1)NCCC2 (stereo not drawn) [Example 10, 3-(3-bromo-5-(trifluoromethyl)phenyl)-4-(1-methyl-5-(2-(5,6,7,8-tetrahydro-1,8-naphthyridin-2-yl)ethoxy)-1H-pyrazol-3-yl)butanoic Acid]	3.6	25	120	1
CC(C)c1cc(Br)cc(C(CC(=O)O)Cc2cc(OCCc3ccc4c(n3)NCCC4)n(C)n2)c1 (stereo not drawn) [Example 40, 3-(3-bromo-5-isopropyl-phenyl)-4-[1-methyl-5-[2-(5,6,7,8-tetrahydro-1,8-naphthyridin-2-yl)ethoxyl]pyrazol-3-yl]butanoic acid trifluoroacetate]	7.2	79	21	1.1
COc1ccc(C(C)C)cc1C(CC(=O)O)Cc1cc(OCCc2ccc3c(n2)NCCC3)n(C)n1 (stereo not drawn) [Example 39, 3-(5-isopropyl-2-methoxyphenyl)-4-(1-methyl-5-(2-(5,6,7,8-tetrahydro-1,8-naphthyridin-2-yl)ethoxy)-1H-pyrazol-3-yl)butanoic Acid Trifluoroacetate]	290	230	31	96
